*1 amine or outer side, *2 acyl side, *3 side chain or, on linkers, in order; H or OH if unused. Where a SMILES comes first, the peptide text is derived from it. Side-chain parts run from the residue outwards. [ ]: non-standard residue; d: D form. The star is where a group is joined. C20 diacid = O=C(O)CCCCCCCCCCCCCCCCCCC(=O)*; C18 diacid = O=C(O)CCCCCCCCCCCCCCCCC(=O)*; αMePhe(2-F) = C[C@](N)(Cc1ccccc1F)C(=O)O; γGlu = O=C(O)[C@H](CCC(=O)[*:2])N[*:1]; αMeF = C[C@](N)(Cc1ccccc1)C(=O)O; αMeL = CC(C)C[C@](C)(N)C(=O)O; AEEA = NCCOCCOCC(=O)O; Aib = CC(C)(N)C(=O)O
Experiments:
human GIPR = target: T1, human GIPR (Homo sapiens, UniProt P48546); experiment: [125I]-GIP binding, SPA with WGA beads, 0.1% bacitracin; details: geometric mean, read-out: hGIPR Ki
T1 construct: expressed in transfected cells; crude membranes
T1 sequence (P48546 22-466): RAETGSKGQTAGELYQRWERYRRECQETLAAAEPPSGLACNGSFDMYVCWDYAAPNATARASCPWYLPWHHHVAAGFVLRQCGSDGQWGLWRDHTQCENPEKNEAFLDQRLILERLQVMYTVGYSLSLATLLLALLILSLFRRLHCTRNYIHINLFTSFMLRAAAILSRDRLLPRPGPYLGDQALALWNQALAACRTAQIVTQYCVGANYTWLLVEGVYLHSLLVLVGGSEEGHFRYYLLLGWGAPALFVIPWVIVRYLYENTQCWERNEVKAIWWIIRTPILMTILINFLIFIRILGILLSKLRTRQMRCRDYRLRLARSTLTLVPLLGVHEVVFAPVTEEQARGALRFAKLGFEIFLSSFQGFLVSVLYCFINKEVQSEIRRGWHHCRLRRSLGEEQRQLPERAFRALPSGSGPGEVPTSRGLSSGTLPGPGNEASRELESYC
Summary of the method: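 Ki values are geometric means (SEM, n independent days), derived from four-parameter nonlinear regression of IC50. Membranes came from hGIPR-expressing CHO cells.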

[1] = target: T2, human GLP-1 receptor (GLP-1R) (Homo sapiens, UniProt P43220); experiment: cAMP functional assay (HTRF) in HEK293 cells in presence of 0.1% casein; format: cell-based; details: HEK293 cells expressing human GLP-1R, geometric mean, read-out: hGLP1R cAMP Rel EC50 nM (SEM, n)
T2 construct: expressed in transfected cells; host or cells: HEK293
T2 sequence (P43220 24-463): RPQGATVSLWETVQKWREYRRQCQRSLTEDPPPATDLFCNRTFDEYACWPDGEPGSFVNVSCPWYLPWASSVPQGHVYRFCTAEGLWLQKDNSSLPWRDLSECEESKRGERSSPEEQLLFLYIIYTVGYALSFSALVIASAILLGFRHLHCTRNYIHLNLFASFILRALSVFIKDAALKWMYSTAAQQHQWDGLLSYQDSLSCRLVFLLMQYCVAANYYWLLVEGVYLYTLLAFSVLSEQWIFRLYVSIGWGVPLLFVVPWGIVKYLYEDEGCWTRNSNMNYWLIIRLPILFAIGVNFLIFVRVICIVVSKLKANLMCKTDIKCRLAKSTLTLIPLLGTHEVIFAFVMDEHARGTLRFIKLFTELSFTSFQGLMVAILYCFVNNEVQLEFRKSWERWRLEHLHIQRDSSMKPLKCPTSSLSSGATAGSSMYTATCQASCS

CC[C@H](C)[C@H](NC(=O)[C@H](CCCCN)NC(=O)[C@H](CC(=O)O)NC(=O)[C@H](CC(C)C)NC(=O)[C@](C)(CC(C)C)NC(=O)[C@@H](NC(=O)[C@H](CO)NC(=O)[C@H](Cc1ccc(O)cc1)NC(=O)[C@H](CC(=O)O)NC(=O)[C@H](CO)NC(=O)[C@@H](NC(=O)[C@H](Cc1ccccc1)NC(=O)[C@@H](NC(=O)CNC(=O)[C@H](CCC(=O)O)NC(=O)C(C)(C)NC(=O)[C@@H](N)Cc1ccc(O)cc1)[C@@H](C)O)[C@@H](C)CC)[C@@H](C)CC)C(=O)N[C@@H](Cc1c[nH]cn1)C(=O)N[C@@H](CCC(N)=O)C(=O)NC(C)(C)C(=O)N[C@@H](CC(=O)O)C(=O)N[C@@H](Cc1ccccc1)C(=O)N[C@H](C(=O)N[C@@H](CCC(=O)O)C(=O)N[C@@H](Cc1ccc(O)cc1)C(=O)N[C@@H](CCCCNC(=O)COCCOCCNC(=O)COCCOCCNC(=O)CC[C@H](NC(=O)CCCCCCCCCCCCCCCCCCC(=O)O)C(=O)O)C(=O)N[C@@H](CC(C)C)C(=O)N[C@@H](CCC(=O)O)C(=O)N[C@@H](CCC(N)=O)C(=O)NCC(=O)N1CCC[C@H]1C(=O)N[C@@H](CO)C(=O)N[C@@H](CO)C(=O)NCC(=O)N[C@@H](C)C(=O)N1CCC[C@H]1C(=O)N1CCC[C@H]1C(=O)N1CCC[C@H]1C(=O)N[C@@H](CO)C(N)=O)C(C)C [Example 92] (H-Y[Aib]EGTFISDYSI[αMeL]LDKIHQ[Aib]DFVEYK([AEEA-AEEA-γGlu-C20 diacid])LEQGPSSGAPPPS-NH2)
Ki (human GIPR): 0.0331 nM
EC50 [1]: > 5000 nM

CC[C@H](C)[C@H](NC(=O)[C@H](CCCCN)NC(=O)[C@H](CC(=O)O)NC(=O)[C@H](CC(C)C)NC(=O)[C@H](CC(C)C)NC(=O)[C@@H](NC(=O)[C@H](CO)NC(=O)[C@H](Cc1ccc(O)cc1)NC(=O)[C@H](CC(=O)O)NC(=O)[C@H](CO)NC(=O)[C@@H](NC(=O)[C@H](Cc1ccccc1)NC(=O)[C@@H](NC(=O)CNC(=O)[C@H](CCC(=O)O)NC(=O)[C@@H](C)NC(=O)[C@@H](N)Cc1ccc(O)cc1)[C@@H](C)O)[C@@H](C)CC)[C@@H](C)CC)C(=O)N[C@@H](C)C(=O)N[C@@H](CCC(N)=O)C(=O)NC(C)(C)C(=O)N[C@@H](CC(=O)O)C(=O)N[C@@H](Cc1ccccc1)C(=O)N[C@H](C(=O)N[C@@H](CC(N)=O)C(=O)N[C@@H](Cc1c[nH]c2ccccc12)C(=O)N[C@@H](CCCCNC(=O)COCCOCCNC(=O)COCCOCCNC(=O)CC[C@H](NC(=O)CCCCCCCCCCCCCCCCC(=O)O)C(=O)O)C(=O)N[C@@H](CC(C)C)C(=O)N[C@@H](C)C(=O)N[C@@H](CCC(N)=O)C(=O)NCC(=O)N1CCC[C@H]1C(=O)N[C@@H](CO)C(=O)N[C@@H](CO)C(=O)NCC(=O)N[C@@H](C)C(=O)N1CCC[C@H]1C(=O)N1CCC[C@H]1C(=O)N1CCC[C@H]1C(=O)N[C@@H](CO)C(N)=O)C(C)C [Example 93] (H-Y[dA]EGTFISDYSILLDKIAQ[Aib]DFVNWK([AEEA-AEEA-γGlu-C18 diacid])LAQGPSSGAPPPS-NH2)
Ki (human GIPR): 0.043 nM
EC50 [1]: 884 nM

CC[C@H](C)[C@H](NC(=O)[C@H](CO)NC(=O)[C@H](Cc1ccc(O)cc1)NC(=O)[C@H](CC(=O)O)NC(=O)[C@H](CO)NC(=O)[C@@H](NC(=O)[C@](C)(Cc1ccccc1F)NC(=O)[C@@H](NC(=O)CNC(=O)[C@H](CCC(=O)O)NC(=O)C(C)(C)NC(=O)[C@@H](N)Cc1ccc(O)cc1)[C@@H](C)O)[C@@H](C)CC)C(=O)N[C@@H](C)C(=O)N[C@@H](CC(C)C)C(=O)N[C@@H](CC(=O)O)C(=O)N[C@@H](CCCCN)C(=O)N[C@H](C(=O)N[C@@H](Cc1c[nH]cn1)C(=O)N[C@@H](CCC(N)=O)C(=O)NC(C)(C)C(=O)N[C@@H](CCC(=O)O)C(=O)N[C@@H](Cc1ccccc1)C(=O)N[C@H](C(=O)N[C@@H](CC(N)=O)C(=O)N[C@@H](Cc1ccc(O)cc1)C(=O)N[C@@H](CCCCNC(=O)COCCOCCNC(=O)COCCOCCNC(=O)CC[C@H](NC(=O)CCCCCCCCCCCCCCCCC(=O)O)C(=O)O)C(=O)N[C@@H](CC(C)C)C(=O)N[C@@H](C)C(=O)NCC(=O)NCC(=O)N1CCC[C@H]1C(=O)N[C@@H](CO)C(=O)N[C@@H](CO)C(=O)NCC(=O)N[C@@H](C)C(=O)N1CCC[C@H]1C(=O)N1CCC[C@H]1C(=O)N1CCC[C@H]1C(=O)N[C@@H](CO)C(N)=O)C(C)C)[C@@H](C)CC [Example 94] (H-Y[Aib]EGT[αMePhe(2-F)]ISDYSIALDKIHQ[Aib]EFVNYK([AEEA-AEEA-γGlu-C18 diacid])LAGGPSSGAPPPS-NH2)
Ki (human GIPR): 0.031 nM
EC50 [1]: 1090 nM

CC[C@H](C)[C@H](NC(=O)[C@H](CO)NC(=O)[C@H](Cc1ccc(O)cc1)NC(=O)[C@H](CC(=O)O)NC(=O)[C@H](CO)NC(=O)[C@@H](NC(=O)[C@](C)(Cc1ccccc1F)NC(=O)[C@@H](NC(=O)CNC(=O)[C@H](CCC(=O)O)NC(=O)C(C)(C)NC(=O)[C@@H](N)Cc1ccc(O)cc1)[C@@H](C)O)[C@@H](C)CC)C(=O)N[C@@H](C)C(=O)N[C@@H](CC(C)C)C(=O)N[C@@H](CC(=O)O)C(=O)N[C@@H](CCCCN)C(=O)N[C@H](C(=O)N[C@@H](Cc1c[nH]cn1)C(=O)N[C@@H](CCC(N)=O)C(=O)NC(C)(C)C(=O)N[C@@H](CCC(=O)O)C(=O)N[C@@H](Cc1ccccc1)C(=O)N[C@H](C(=O)N[C@@H](CC(N)=O)C(=O)N[C@@H](Cc1ccc(O)cc1)C(=O)N[C@@H](CCCCNC(=O)COCCOCCNC(=O)COCCOCCNC(=O)CC[C@H](NC(=O)CCCCCCCCCCCCCCCCCCC(=O)O)C(=O)O)C(=O)N[C@@H](CC(C)C)C(=O)N[C@@H](CCC(=O)O)C(=O)NCC(=O)NCC(=O)N1CCC[C@H]1C(=O)N[C@@H](CO)C(=O)N[C@@H](CO)C(=O)NCC(=O)N[C@@H](C)C(=O)N1CCC[C@H]1C(=O)N1CCC[C@H]1C(=O)N1CCC[C@H]1C(=O)N[C@@H](CO)C(N)=O)C(C)C)[C@@H](C)CC [Example 95] (H-Y[Aib]EGT[αMePhe(2-F)]ISDYSIALDKIHQ[Aib]EFVNYK([AEEA-AEEA-γGlu-C20 diacid])LEGGPSSGAPPPS-NH2)
Ki (human GIPR): 0.0255 nM
EC50 [1]: > 5000 nM

CC[C@H](C)[C@H](NC(=O)[C@H](CO)NC(=O)[C@H](Cc1ccc(O)cc1)NC(=O)[C@H](CC(=O)O)NC(=O)[C@H](CO)NC(=O)[C@@H](NC(=O)[C@H](Cc1ccccc1)NC(=O)[C@@H](NC(=O)CNC(=O)[C@H](CCC(=O)O)NC(=O)C(C)(C)NC(=O)[C@@H](N)Cc1ccc(O)cc1)[C@@H](C)O)[C@@H](C)CC)C(=O)N[C@@H](C)C(=O)N[C@@H](CC(C)C)C(=O)N[C@@H](CC(=O)O)C(=O)N[C@@H](CCCCN)C(=O)N[C@H](C(=O)N[C@@H](Cc1c[nH]cn1)C(=O)N[C@@H](CCC(N)=O)C(=O)NC(C)(C)C(=O)N[C@@H](CCC(=O)O)C(=O)N[C@@H](Cc1ccccc1)C(=O)N[C@H](C(=O)N[C@@H](CC(N)=O)C(=O)N[C@@H](Cc1ccc(O)cc1)C(=O)N[C@@H](CCCCNC(=O)COCCOCCNC(=O)COCCOCCNC(=O)CC[C@H](NC(=O)CCCCCCCCCCCCCCCCCCC(=O)O)C(=O)O)C(=O)N[C@@H](CC(C)C)C(=O)N[C@@H](C)C(=O)NCC(=O)NCC(=O)N1CCC[C@H]1C(=O)N[C@@H](CO)C(=O)N[C@@H](CO)C(=O)NCC(=O)N[C@@H](C)C(=O)N1CCC[C@H]1C(=O)N1CCC[C@H]1C(=O)N1CCC[C@H]1C(=O)N[C@@H](CO)C(N)=O)C(C)C)[C@@H](C)CC [Example 96] (H-Y[Aib]EGTFISDYSIALDKIHQ[Aib]EFVNYK([AEEA-AEEA-γGlu-C20 diacid])LAGGPSSGAPPPS-NH2)
Ki (human GIPR): 0.232 nM
EC50 [1]: > 5000 nM

CC[C@H](C)[C@H](NC(=O)[C@H](CO)NC(=O)[C@H](Cc1ccc(O)cc1)NC(=O)[C@H](CC(=O)O)NC(=O)[C@H](CO)NC(=O)[C@@H](NC(=O)[C@](C)(Cc1ccccc1)NC(=O)[C@@H](NC(=O)CNC(=O)[C@H](CCC(=O)O)NC(=O)C(C)(C)NC(=O)[C@@H](N)Cc1ccc(O)cc1)[C@@H](C)O)[C@@H](C)CC)C(=O)N[C@@H](C)C(=O)N[C@@H](CC(C)C)C(=O)N[C@@H](CC(=O)O)C(=O)N[C@@H](CCCCN)C(=O)N[C@H](C(=O)N[C@@H](Cc1c[nH]cn1)C(=O)N[C@@H](CCC(N)=O)C(=O)NC(C)(C)C(=O)N[C@@H](CCC(=O)O)C(=O)N[C@@H](Cc1ccccc1)C(=O)N[C@H](C(=O)N[C@@H](CC(N)=O)C(=O)N[C@@H](Cc1ccc(O)cc1)C(=O)N[C@@H](CCCCNC(=O)COCCOCCNC(=O)COCCOCCNC(=O)CC[C@H](NC(=O)CCCCCCCCCCCCCCCCCCC(=O)O)C(=O)O)C(=O)N[C@@H](CC(C)C)C(=O)N[C@@H](C)C(=O)NCC(=O)NCC(=O)N1CCC[C@H]1C(=O)N[C@@H](CO)C(=O)N[C@@H](CO)C(=O)NCC(=O)N[C@@H](C)C(=O)N1CCC[C@H]1C(=O)N1CCC[C@H]1C(=O)N1CCC[C@H]1C(=O)N[C@@H](CO)C(N)=O)C(C)C)[C@@H](C)CC [Example 97] (H-Y[Aib]EGT[αMeF]ISDYSIALDKIHQ[Aib]EFVNYK([AEEA-AEEA-γGlu-C20 diacid])LAGGPSSGAPPPS-NH2)
Ki (human GIPR): 0.0249 nM
EC50 [1]: 2510 nM

Reference: patent publication US12723063B2, “GIPR-agonist compounds” (Eli Lilly and Company, priority 2019, dated 2026)
